Laboratory results published in ChEMBL document CHEMBL1201862, “PubChem BioAssay data set” (2004).
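Tested at 5 concentrations; 48 h exposure; 96-well plates; endpoints linearly interpolated, else capped at highest concentration. At the GI50, growth is halved.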 The source made the active and inactive calls. Cut-off read from the data, not from the text of the source: active = GI50 up to about 1.1 µM and inactive = higher.

Experiments:
Assay in all cases: DTP human tumour cell line panel, 48 h
DMS-273 = tested on: DMS-273
XF498 = tested on: XF498
LXFL 529 = tested on: LXFL 529
SNB-78 = tested on: SNB-78
HOP-18 = tested on: HOP-18
DLD-1 = tested on: DLD-1
RXF 631 = tested on: RXF 631
KM-20L2 = tested on: KM-20L2
Hs-578T = tested on: Hs-578T

O=C(NN1C(=O)C(Cl)C1c1cccc(Cl)c1)c1ccccc1O (configuration not stated)
GI50 (DMS-273): > 100 µM (inactive)
GI50 (XF498): 15.3 µM (inactive)
GI50 (LXFL 529): > 100 µM (inactive)
GI50 (SNB-78): > 100 µM (inactive)
GI50 (HOP-18): 0.167 µM (active)

C=C(C)C1CC=C(C)CC1 (configuration not stated)
GI50 (DLD-1): 885 µM (inactive)
GI50 (DMS-273): 993 µM (inactive)
GI50 (XF498): 993 µM (inactive)
GI50 (LXFL 529): 855 µM (inactive)
GI50 (SNB-78): 986 µM (inactive)
GI50 (HOP-18): > 100 µM (inactive)
GI50 (RXF 631): 908 µM (inactive)
GI50 (KM-20L2): 904 µM (inactive)

COc1ccc(C2NC(c3ccc(OC)cc3)C(C)C(=O)C2C)cc1 (configuration not stated)
GI50 (DLD-1): > 100 µM (inactive)
GI50 (DMS-273): > 100 µM (inactive)
GI50 (LXFL 529): > 100 µM (inactive)
GI50 (SNB-78): > 100 µM (inactive)
GI50 (HOP-18): > 100 µM (inactive)
GI50 (RXF 631): > 100 µM (inactive)
GI50 (KM-20L2): > 100 µM (inactive)

CS(=O)(=O)NNS(=O)(=O)c1ccc(F)cc1
GI50 (DLD-1): > 100 µM (inactive)
GI50 (DMS-273): > 100 µM (inactive)
GI50 (LXFL 529): > 100 µM (inactive)
GI50 (RXF 631): > 100 µM (inactive)
GI50 (KM-20L2): > 100 µM (inactive)

CC(=O)/C(=C\c1ccccc1)C(=O)Nc1ccccc1
GI50 (DLD-1): > 100 µM (inactive)
GI50 (XF498): > 100 µM (inactive)
GI50 (LXFL 529): > 100 µM (inactive)
GI50 (SNB-78): > 100 µM (inactive)
GI50 (HOP-18): > 100 µM (inactive)
GI50 (RXF 631): > 100 µM (inactive)

Cc1cccc(N2C(=O)C(Cl)=C(Cl)C2=O)c1
GI50 (DLD-1): > 43 µM (inactive)
GI50 (DMS-273): > 100 µM (inactive)
GI50 (XF498): 0.661 µM (active)
GI50 (LXFL 529): > 41.6 µM (inactive)
GI50 (SNB-78): > 100 µM (inactive)
GI50 (HOP-18): > 73.6 µM (inactive)
GI50 (KM-20L2): > 100 µM (inactive)

CCN(CC)CCC1(C2CCCCC2)CCC(=O)NC1=O (configuration not stated)
GI50 (DLD-1): > 100 µM (inactive)
GI50 (DMS-273): > 100 µM (inactive)
GI50 (XF498): > 100 µM (inactive)
GI50 (LXFL 529): > 100 µM (inactive)
GI50 (SNB-78): > 100 µM (inactive)
GI50 (RXF 631): > 100 µM (inactive)
GI50 (KM-20L2): > 100 µM (inactive)

COc1ccc2c(c1)[n+]([O-])c(-c1ccc(Cl)c(Cl)c1)c(N)[n+]2[O-]
GI50 (DLD-1): 33.9 µM (inactive)
GI50 (DMS-273): 23.8 µM (inactive)
GI50 (LXFL 529): 35.6 µM (inactive)
GI50 (SNB-78): 53.6 µM (inactive)
GI50 (HOP-18): 24.3 µM (inactive)
GI50 (RXF 631): 21.3 µM (inactive)
GI50 (KM-20L2): 32.3 µM (inactive)

N=C(N)NS(=O)(=O)c1ccc(NC(=O)c2cccc3c(N)c4ccccc4nc23)cc1
GI50 (DLD-1): > 100 µM (inactive)
GI50 (DMS-273): > 100 µM (inactive)
GI50 (XF498): > 100 µM (inactive)
GI50 (LXFL 529): 60.1 µM (inactive)
GI50 (SNB-78): > 100 µM (inactive)
GI50 (RXF 631): > 100 µM (inactive)
GI50 (KM-20L2): 68.2 µM (inactive)

CCOc1cc2c(C(=O)CC)c(O)ccc2o1
GI50 (DMS-273): > 100 µM (inactive)
GI50 (XF498): > 49.9 µM (inactive)
GI50 (LXFL 529): 64.9 µM (inactive)
GI50 (SNB-78): > 96.6 µM (inactive)
GI50 (KM-20L2): > 100 µM (inactive)

COc1cc2cnc3c4cc(O)ccc4ccc3c2cc1OC
GI50 (DLD-1): > 100 µM (inactive)
GI50 (LXFL 529): 6.08 µM (inactive)
GI50 (HOP-18): 34.8 µM (inactive)
GI50 (KM-20L2): > 100 µM (inactive)

CCCCCCCCCCCCCS(=O)(=O)NCC(N)=O
GI50 (DLD-1): > 100 µM (inactive)
GI50 (XF498): 69.8 µM (inactive)
GI50 (LXFL 529): > 100 µM (inactive)
GI50 (SNB-78): > 100 µM (inactive)
GI50 (HOP-18): > 100 µM (inactive)
GI50 (KM-20L2): > 100 µM (inactive)

COC(=N)/C(=C1\OC(=N)C(c2ccc(Cl)cc2)=C1O)c1ccc(Cl)cc1
GI50 (DLD-1): > 100 µM (inactive)
GI50 (DMS-273): > 100 µM (inactive)
GI50 (XF498): > 100 µM (inactive)
GI50 (LXFL 529): 74.3 µM (inactive)
GI50 (SNB-78): > 100 µM (inactive)
GI50 (HOP-18): > 100 µM (inactive)
GI50 (KM-20L2): > 100 µM (inactive)

CCCc1nc(Cl)c(Cl)c(Cl)n1
GI50 (Hs-578T): 14.6 µM (inactive)

CCCC(C(=O)OC)C1N/C(=N/C#N)N(Cc2ccccc2)C1=O (configuration not stated)
GI50 (DLD-1): > 100 µM (inactive)
GI50 (DMS-273): > 100 µM (inactive)
GI50 (XF498): > 100 µM (inactive)
GI50 (LXFL 529): > 100 µM (inactive)
GI50 (KM-20L2): > 100 µM (inactive)

CCSc1nc2n(c(=S)n1)CCN2C
GI50 (DMS-273): 18.1 µM (inactive)
GI50 (LXFL 529): 13.4 µM (inactive)
GI50 (KM-20L2): 20 µM (inactive)

COP(=O)(OC)[C@@](O)(c1ccccc1)[C@@H](O)[C@@H](O)c1ccccc1
GI50 (Hs-578T): > 100 µM (inactive)

COc1ccccc1N1C(=O)C2c3[nH]c4ccccc4c3C3CCC(C(C)(C)C)CC3C2C1=O (configuration not stated)
GI50 (DLD-1): > 100 µM (inactive)
GI50 (DMS-273): > 100 µM (inactive)
GI50 (XF498): > 100 µM (inactive)
GI50 (LXFL 529): > 100 µM (inactive)
GI50 (SNB-78): > 100 µM (inactive)
GI50 (HOP-18): > 100 µM (inactive)
GI50 (KM-20L2): > 100 µM (inactive)

Cc1c(N)nc(C(CC(N)=O)NCC(N)C(N)=O)nc1C(=O)NC(C(=O)NC(C)C(O)C(C)C(=O)NC(C(=O)NCCc1nc(-c2nc(C(=O)NCCCNC(C)c3ccccc3)cs2)cs1)C(C)O)C(OC1OC(CO)C(O)C(O)C1OC1OC(CO)C(O)C(OC(N)=O)C1O)c1c[nH]cn1 (configuration not stated)
GI50 (DLD-1): 32.8 µM (inactive)
GI50 (DMS-273): 0.0752 µM (active)
GI50 (Hs-578T): 0.0482 µM (active)
GI50 (XF498): 0.973 µM (active)
GI50 (LXFL 529): 23.9 µM (inactive)
GI50 (SNB-78): > 50 µM (inactive)
GI50 (HOP-18): 21.3 µM (inactive)
GI50 (KM-20L2): 40.4 µM (inactive)

Oc1cc(O)c(Oc2cccc(O)c2O)c(O)c1
GI50 (DMS-273): > 100 µM (inactive)
GI50 (XF498): 29.5 µM (inactive)
GI50 (LXFL 529): > 100 µM (inactive)
GI50 (SNB-78): > 100 µM (inactive)
GI50 (HOP-18): > 100 µM (inactive)
GI50 (RXF 631): > 100 µM (inactive)

CCOC(=O)N1CCN(c2c(C)nc(C)nc2O)CC1
GI50 (Hs-578T): > 100 µM (inactive)

Cc1nc2c(C)ccc([N+](=O)[O-])c2c(NCCCN(C)C)c1C
GI50 (Hs-578T): 63 µM (inactive)

O=C1NC(=O)/C(=N\c2cccc3c(=O)[nH][nH]c(=O)c23)C(c2nc3ccccc3s2)C1=O (configuration not stated)
GI50 (DLD-1): > 100 µM (inactive)
GI50 (DMS-273): > 100 µM (inactive)
GI50 (XF498): 32.1 µM (inactive)
GI50 (LXFL 529): > 100 µM (inactive)
GI50 (SNB-78): > 100 µM (inactive)
GI50 (HOP-18): > 100 µM (inactive)
GI50 (RXF 631): > 100 µM (inactive)
GI50 (KM-20L2): > 100 µM (inactive)

O=C(CC(=O)N1N=C(n2ccc3ccccc32)CC1c1ccccc1)Nc1cccc(Cl)c1 (configuration not stated)
GI50 (DLD-1): > 100 µM (inactive)
GI50 (DMS-273): > 100 µM (inactive)
GI50 (LXFL 529): > 100 µM (inactive)
GI50 (SNB-78): > 100 µM (inactive)
GI50 (HOP-18): > 100 µM (inactive)
GI50 (RXF 631): > 100 µM (inactive)
GI50 (KM-20L2): > 100 µM (inactive)

CC1=C(C(=O)CC(=O)C(=O)Nc2cccc(C)c2C)Sc2ccccc2N1
GI50 (DLD-1): > 100 µM (inactive)
GI50 (LXFL 529): > 100 µM (inactive)
GI50 (SNB-78): > 100 µM (inactive)
GI50 (HOP-18): > 100 µM (inactive)

Cc1cccc(C)c1NC(=O)C(=O)CC(=O)c1sc(Nc2c(C)cccc2C)nc1C
GI50 (Hs-578T): > 100 µM (inactive)

COc1ccc(OC)c(NC(=O)C2=C(C)NC(C)=C(C(=O)Nc3cc(OC)ccc3OC)C2c2ccccc2)c1
GI50 (DLD-1): 21.7 µM (inactive)
GI50 (DMS-273): > 100 µM (inactive)
GI50 (LXFL 529): > 100 µM (inactive)
GI50 (SNB-78): > 100 µM (inactive)
GI50 (HOP-18): 1.04 µM (active)
GI50 (KM-20L2): 86.5 µM (inactive)

O=c1[nH]cc(COCCO)c(=O)[nH]1
GI50 (DLD-1): > 100 µM (inactive)
GI50 (DMS-273): > 100 µM (inactive)
GI50 (XF498): > 100 µM (inactive)
GI50 (LXFL 529): > 100 µM (inactive)
GI50 (SNB-78): > 100 µM (inactive)
GI50 (HOP-18): > 100 µM (inactive)
GI50 (RXF 631): > 100 µM (inactive)
GI50 (KM-20L2): > 100 µM (inactive)

COP(=O)(OC)C(O)/C=C/c1ccco1 (configuration not stated)
GI50 (Hs-578T): > 100 µM (inactive)

CC1=C(C(=O)Nc2ccccc2C)C(c2ccc(Cl)cc2)C(C(=O)Nc2ccccc2C)=C(C)N1
GI50 (DLD-1): > 100 µM (inactive)
GI50 (XF498): 81.3 µM (inactive)
GI50 (LXFL 529): > 100 µM (inactive)
GI50 (SNB-78): > 100 µM (inactive)
GI50 (HOP-18): > 100 µM (inactive)
GI50 (RXF 631): > 100 µM (inactive)

COC(=O)C1[C@H](c2cc(OC)c(OC)c(OC)c2)OC(=O)C1(C(=O)OC)C(=O)c1ccc2c(c1)OCO2 (some centres not stated)
GI50 (DLD-1): > 100 µM (inactive)
GI50 (DMS-273): > 100 µM (inactive)
GI50 (XF498): > 100 µM (inactive)
GI50 (LXFL 529): > 100 µM (inactive)
GI50 (SNB-78): > 100 µM (inactive)
GI50 (KM-20L2): > 100 µM (inactive)

Cc1c2ccncc2c(C)c2c1[nH]c1ccc(OCC(F)(F)F)cc12
GI50 (DLD-1): 1.57 µM (inactive)
GI50 (DMS-273): 0.82 µM (active)
GI50 (XF498): 1.61 µM (inactive)
GI50 (LXFL 529): 1.2 µM (inactive)
GI50 (SNB-78): 2.92 µM (inactive)
GI50 (RXF 631): 1.57 µM (inactive)
GI50 (KM-20L2): 1.47 µM (inactive)

COc1cc2c[n+](C)c3c4cc5c(cc4ccc3c2cc1OC)OCO5 [NITIDINE CHLORIDE]
GI50 (DLD-1): 14.9 µM (inactive)
GI50 (DMS-273): 0.745 µM (active)
GI50 (Hs-578T): 2.9 µM (inactive)
GI50 (XF498): 2.66 µM (inactive)
GI50 (LXFL 529): 1.4 µM (inactive)
GI50 (SNB-78): 3.37 µM (inactive)
GI50 (HOP-18): 19.5 µM (inactive)
GI50 (RXF 631): 19.8 µM (inactive)
GI50 (KM-20L2): 0.608 µM (active)
